Tested on: Clostridium acetobutylicum
Test: Toxicity study: growth inhibition and cell viability
Format: cell-based
Details: up to 1:1 volume ratios of extractant to media
Source text: Growth inhibition and cell viability was examined in a study using up to 1:1 volume ratios of extractant to media.

CCCC(=O)OCC(COC(=O)CCC)OC(=O)CCC [glyceryl tributyrate]
toxicity to Clostridium acetobutylicum (growth inhibition and cell viability): non-toxic

— US9856427B2, “Method to convert fermentation mixture into fuels” (The Regents of the University of California, priority 2011, dated 2018)
